# Reference: patent US20260184710A1, “CASITAS B-LINEAGE LYMPHOMA PROTOONCOGENE B (CBL-B) DEGRADING COMPOUNDS AND ASSOCIATED METHODS OF USE” (Arvinas Operations, Inc., priority 2022, published 2026)
# Target: T1, Cbl-b (Homo sapiens, UniProt Q13191)
# T1 construct: Cbl-b-HiBit KI Jurkat Cells were purchased from Promega; host or cells: Cbl-b-HiBiT knock-in Jurkat cells
# Experiment: Cbl-b Degradation Method B (Nano-Glo HiBiT lytic detection)
# Format: cell-based
# Details: Cbl-b-HiBit KI Jurkat Cells, incubated at least 6-24 hours; for DC50: half maximal degradation, read-out: Cbl-b Degredation Method B IC50; for Dmax: maximum degradation observed, read-out: Cbl-b Degredation Method B Dmax (%)
# Method in brief: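 Cbl-b-HiBiT knock-in Jurkat cells (20,000/well) were treated after ~24 h plating with an 11-point 1:3 series for 6-24 h at 37° C. Remaining Cbl-b measured by Nano-Glo HiBiT lytic luminescence. DC50 and Dmax expressed as % of control.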
# T1 sequence (Q13191 whole entry): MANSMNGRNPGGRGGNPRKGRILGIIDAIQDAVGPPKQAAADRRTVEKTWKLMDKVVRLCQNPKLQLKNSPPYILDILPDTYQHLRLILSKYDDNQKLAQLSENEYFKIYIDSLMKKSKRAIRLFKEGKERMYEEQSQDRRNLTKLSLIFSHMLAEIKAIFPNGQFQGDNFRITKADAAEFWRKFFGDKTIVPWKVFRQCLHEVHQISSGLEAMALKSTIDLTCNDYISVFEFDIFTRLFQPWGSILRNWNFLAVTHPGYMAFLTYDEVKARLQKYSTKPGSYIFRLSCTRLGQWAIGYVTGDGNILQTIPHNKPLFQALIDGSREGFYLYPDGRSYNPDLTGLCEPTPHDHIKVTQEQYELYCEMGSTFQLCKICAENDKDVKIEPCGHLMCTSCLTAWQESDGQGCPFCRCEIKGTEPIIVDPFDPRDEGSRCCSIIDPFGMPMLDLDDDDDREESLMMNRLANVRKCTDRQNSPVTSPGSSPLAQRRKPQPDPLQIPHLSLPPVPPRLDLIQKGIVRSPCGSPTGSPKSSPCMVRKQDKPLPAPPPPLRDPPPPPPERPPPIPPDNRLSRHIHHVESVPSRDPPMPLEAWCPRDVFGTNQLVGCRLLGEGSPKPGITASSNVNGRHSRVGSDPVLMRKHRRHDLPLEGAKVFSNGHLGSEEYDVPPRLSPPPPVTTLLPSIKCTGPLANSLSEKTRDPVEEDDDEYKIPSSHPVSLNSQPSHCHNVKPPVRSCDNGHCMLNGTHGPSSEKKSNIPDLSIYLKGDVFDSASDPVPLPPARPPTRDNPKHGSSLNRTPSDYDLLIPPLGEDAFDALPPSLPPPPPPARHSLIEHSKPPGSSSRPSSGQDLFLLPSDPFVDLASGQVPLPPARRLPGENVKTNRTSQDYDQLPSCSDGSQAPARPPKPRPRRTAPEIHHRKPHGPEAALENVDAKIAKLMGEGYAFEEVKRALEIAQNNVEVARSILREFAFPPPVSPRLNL
DC50 [nM],Dmax [%],Compound
< 5,> 70,"CC1c2nc(N3CCC(O[C@H]4CC[C@@H](CN5[C@@H](C)CN(Cc6cc7c(c(C(F)(F)F)c6)CN(c6cccc(C8(Cc9nncn9C)COC8)c6)C7=O)C[C@@H]5C)CC4)CC3)ccc2C(=O)N1C1CCC(=O)NC1=O (stereo partly drawn) [Example 249, 3-[7-methyl-5-oxo-2-(4-{[(1r*,4r*)-4-{[(2S,6S)-2,6-dimethyl-4-{[2-(3-{3-[(4-methyl-4H-1,2,4-triazol-3-yl)methyl]oxetan-3-yl}phenyl)-3-oxo-7-(trifluoromethyl)-2,3-dihydro-1H-isoindol-5-yl]methyl}piperazin-1-yl]methyl}cyclohexyl]oxy}piperidin-1-yl)-5H,6H,7H-pyrrolo[3,4-b]pyridin-6-yl]piperidine-2,6-dione]"
> 500,–,"C[C@@H]1c2nc(N3CCC(O[C@H]4CC[C@H](CN5CCN(Cc6cc7c(c(C(F)(F)F)c6)CN(c6cccc(C8(Cc9nncn9C)CC(C#N)C8)c6)C7=O)[C@@H](C)C5)CC4)CC3)ccc2C(=O)N1C1CCC(=O)NC1=O (single isomer, unassigned) [Example 248, (1r***,3r***)-3-[3-(6-{[(2S)-2-methyl-4-{[(1r**,4r**)-4-({1-[(7R*)-6-(2,6-dioxopiperidin-3-yl)-7-methyl-5-oxo-5H,6H,7H-pyrrolo[3,4-b]pyridin-2-yl]piperidin-4-yl}oxy)cyclohexyl]methyl}piperazin-1-yl]methyl}-1-oxo-4-(trifluoromethyl)-2,3-dihydro-1H-isoindol-2-yl)phenyl]-3-[(4-methyl-4H-1,2,4-triazol-3-yl)methyl]cyclobutane-1-carbonitrile]"
> 500,–,"CC1c2nc(N3CCC(O[C@H]4CC[C@H](CN5CCN(Cc6cc(C(F)(F)F)c7cn(-c8cccc(C9(Cc%10nncn%10C)CCC9)c8)nc7c6)C(C)(C)C5)CC4)CC3)ccc2C(=O)N1C1CCC(=O)NC1=O (relative stereo) [Example 255, rel-3-[7-methyl-5-oxo-2-(4-{[(1r,4r)-4-[(3,3-dimethyl-4-{[2-(3-{1-[(4-methyl-4H-1,2,4-triazol-3-yl)methyl]cyclobutyl}phenyl)-4-(trifluoromethyl)-2H-indazol-6-yl]methyl}piperazin-1-yl)methyl]cyclohexyl]oxy}piperidin-1-yl)-5H,6H,7H-pyrrolo[3,4-b]pyridin-6-yl]piperidine-2,6-dione]"
< 5,35 to 70,"Cn1cnnc1C[C@]1(c2cccc(N3Cc4c(cc(CN5CCN(C[C@H]6CC[C@H](OC7CCN(c8ccc9c(c8F)CN(C8CCC(=O)NC8=O)C9=O)CC7)CC6)CC5)cc4C(F)(F)F)C3=O)c2)C[C@@H](C#N)C1 (some centres unmarked) [Example 14, (1s, 3s)-3-[(4-methyl-4H-1,2,4-triazol-3-yl)methyl]-3-(3-{1-oxo-6-[(4-{[(1r, 4r)-4-({1-[2-(2,6-dioxopiperidin-3-yl)-4-fluoro-1-oxo-2,3-dihydro-1H-isoindol-5-yl]piperidin-4-yl}oxy)cyclohexyl]methyl}piperazin-1-yl)methyl]-4-(trifluoromethyl)-2,3-dihydro-1H-isoindol-2-yl}phenyl)cyclobutane-1-carbonitrile]"
< 5,35 to 70,"CC1c2nc(N3CCC(O[C@H]4CC[C@H](CN5[C@H](C)CN(Cc6cc7c(c(C(F)(F)F)c6)CN(c6cccc(C8(Cc9nncn9C)COC8)c6)C7=O)C[C@H]5C)CC4)CC3)ccc2C(=O)N1C1CCC(=O)NC1=O (stereo partly drawn) [Example 250, 3-[7-methyl-5-oxo-2-(4-{[(1r*,4r*)-4-{[(2R,6R)-2,6-dimethyl-4-{[2-(3-{3-[(4-methyl-4H-1,2,4-triazol-3-yl)methyl]oxetan-3-yl}phenyl)-3-oxo-7-(trifluoromethyl)-2,3-dihydro-1H-isoindol-5-yl]methyl}piperazin-1-yl]methyl}cyclohexyl]oxy}piperidin-1-yl)-5H,6H,7H-pyrrolo[3,4-b]pyridin-6-yl]piperidine-2,6-dione]"
